From ChEMBL document CHEMBL4665709, “Rational Avoidance of Protease Cleavage Sites and Symmetrical End-Tagging Significantly Enhances the Stability and Therapeutic Potential of Antimicrobial Peptides” (J Med Chem, 2020)
≈ marks a conversion by molar mass, not a printed value. Calls of active or inactive are those of the source. No cut-off for these calls is given here.

Columns and labels:
[1] = tested on: Escherichia coli; experiment: Antibacterial activity against Escherichia coli ATCC 25922 measured after 18 to 24 hrs in presence of pepsin by CLSI-based broth microdilution method; assay type: functional, organism-based; conditions: time hrs 18-24
[2] = Therapeutic index, ratio of MHC for human RBC to geometric mean of peptide MIC for Streptococcus agalactiae H92; assay type: toxicity; conditions: human red blood cells (RBC), read-out: TI
[3] = Stability of compound assessed as pepsin (unknown origin)-mediated drug degradation after 1 hr by RP-HPLC analysis; assay type: ADME; conditions: human
[4] = tested on: Salmonella enterica; experiment: Antibacterial activity against Salmonella choleraesuis 503 after 18 to 24 hrs by CLSI-based broth microdilution method; assay type: functional; conditions: time hrs 18-24
[5] = tested on: Staphylococcus aureus; experiment: Antibacterial activity against Staphylococcus aureus 29213 with 0.0625-2 mg/mL proteinase K for 1 hr followed by test compound addition measured after 4 to 8 hrs by CLSI-based broth microdilution method; assay type: functional, organism-based; conditions: time hrs 4-8
[6] = Stability of compound assessed as chymotrypsin (unknown origin)-mediated drug degradation after 1 hr by SDS-PAGE analysis; assay type: ADME; conditions: human
[7] = biological target: T1, Trypsin (Homo sapiens, UniProt P07477+P07478+P35030); experiment: Stability of compound assessed as trypsin (unknown origin)-mediated drug degradation after 1 hr by RP-HPLC analysis; assay type: ADME, protein assay
[8] = Stability of compound assessed as pepsin (unknown origin)-mediated drug degradation after 1 hr by SDS-PAGE analysis; assay type: ADME; conditions: human
[9] = Therapeutic index, ratio of MHC for human RBC to geometric mean of peptide MIC for Escherichia coli UB1005; assay type: toxicity; conditions: human red blood cells (RBC), read-out: TI
[10] = tested on: Streptococcus agalactiae; experiment: Antibacterial activity against Streptococcus agalactiae H92 after 18 to 24 hrs by CLSI-based broth microdilution method; assay type: functional; conditions: time hrs 18-24
[11] = Antibacterial activity against Salmonella pullorum 7913 after 18 to 24 hrs by CLSI-based broth microdilution method; assay type: functional, Salmonella enterica subsp. enterica serovar Pullorum; conditions: Salmonella enterica, time hrs 18-24
[12] = Therapeutic index, ratio of MHC for human RBC to geometric mean of peptide MIC for Escherichia coli ATCC 25922; assay type: toxicity; conditions: human red blood cells (RBC), read-out: TI
[13] = Therapeutic index, ratio of MHC for human RBC to geometric mean of peptide MIC for Salmonella typhimurium 7731; assay type: toxicity; conditions: human red blood cells (RBC), read-out: TI
[14] = Stability of compound at 100 degreeC after 30 to 90 mins; assay type: physicochemical; conditions: time 30-90 min
[15] = tested on: Staphylococcus aureus; experiment: Antibacterial activity against Staphylococcus aureus 29213 with 0.0625-2 mg/mL trypsin for 1 hr followed by test compound addition measured after 4 to 8 hrs by CLSI-based broth microdilution method; assay type: functional, organism-based; conditions: time hrs 4-8
[16] = Hemolytic activity in human RBC assessed as hemolysis at 1 uM relative to control; assay type: ADME, cell-based, Erythrocyte; conditions: human red blood cells (RBC), read-out: Activity
[17] = Therapeutic index, ratio of MHC for human RBC to geometric mean of peptide MIC for Enterococcus faecalis ATCC 29212; assay type: toxicity; conditions: human red blood cells (RBC), read-out: TI
[18] = Stability of compound assessed as chymotrypsin (unknown origin)-mediated drug degradation after 1 hr by RP-HPLC analysis; assay type: ADME; conditions: human
[19] = tested on: Enterococcus faecalis; experiment: Antibacterial activity against Enterococcus faecalis ATCC 29212 after 18 to 24 hrs by CLSI-based broth microdilution method; assay type: functional; conditions: time hrs 18-24
[20] = Stability of compound assessed as proteinase K (unknown origin)-mediated drug degradation after 1 hr by RP-HPLC analysis; assay type: ADME; conditions: human
[21] = tested on: RAW264.7; experiment: Cytotoxicity against mouse RAW264.7 cells assessed as reduction in cell viability lower concentration by MTT assay; assay type: cell-based
[22] = tested on: HEK-293T; experiment: Cytotoxicity against HEK-293T cells assessed as reduction in cell viability at lower concentration by MTT assay; assay type: cell-based; conditions: human
[23] = Therapeutic index, ratio of MHC for human RBC to geometric mean of peptide MIC for Salmonella pullorum 7913; assay type: toxicity; conditions: human red blood cells (RBC), read-out: TI
[24] = Therapeutic index, ratio of MHC for human RBC to geometric mean of peptide MIC for Staphylococcus epidermidis ATCC 12228; assay type: toxicity; conditions: human red blood cells (RBC), read-out: TI
[25] = biological target: T1, Trypsin; experiment: Stability of compound assessed as trypsin (unknown origin)-mediated drug degradation after 1 hr by SDS-PAGE analysis; assay type: ADME, protein assay
[26] = tested on: Escherichia coli; experiment: Antibacterial activity against Escherichia coli ATCC 25922 measured after 18 to 24 hrs in presence of proteinase K by CLSI-based broth microdilution method; assay type: functional, organism-based; conditions: time hrs 18-24
[27] = tested on: Staphylococcus aureus; experiment: Antibacterial activity against Staphylococcus aureus 29213 with 0.0625-2 mg/mL pepsin for 1 hr followed by test compound addition measured after 4 to 8 hrs by CLSI-based broth microdilution method; assay type: functional, organism-based; conditions: time hrs 4-8
[28] = tested on: Erythrocyte; experiment: Hemolytic activity in human RBC assessed as hemolysis; assay type: ADME, cell-based
[29] = Therapeutic index, ratio of MHC for human RBC to geometric mean of peptide MIC for Staphylococcus aureus ATCC 29213; assay type: toxicity; conditions: human red blood cells (RBC), read-out: TI
[30] = tested on: Escherichia coli; experiment: Antibacterial activity against Escherichia coli ATCC 25922 measured after 18 to 24 hrs in presence of chymotrypsin by CLSI-based broth microdilution method; assay type: functional, organism-based; conditions: time hrs 18-24
[31] = tested on: Cell membrane; experiment: Induction of outer membrane permeabilization in Escherichia coli ATCC 25922 after 30 mins by NPN-dye based assay
[32] = Hemolytic activity in human RBC assessed as hemolysis at 1 to 128 uM relative to control; assay type: ADME, cell-based, Erythrocyte; conditions: human red blood cells (RBC), dose 1-128 µM, read-out: Activity
[33] = tested on: Staphylococcus aureus; experiment: Antibacterial activity against Staphylococcus aureus 29213 with 0.0625-2 mg/mL chymotrypsin for 1 hr followed by test compound addition measured after 4 to 8 hrs by CLSI-based broth microdilution method; assay type: functional, organism-based; conditions: time hrs 4-8
[34] = Stability of compound assessed as proteinase K (unknown origin)-mediated drug degradation after 1 hr by SDS-PAGE analysis; assay type: ADME; conditions: human
[35] = Therapeutic index, ratio of MHC for human RBC to geometric mean of peptide MIC for Salmonella typhimurium 14028; assay type: toxicity; conditions: human red blood cells (RBC), read-out: TI
[36] = Therapeutic index, ratio of MHC for human RBC to geometric mean of peptide MIC for methicillin-resistant Staphylococcus aureus 43300; assay type: toxicity; conditions: human red blood cells (RBC), read-out: TI
[37] = tested on: Escherichia coli; experiment: Antibacterial activity against Escherichia coli ATCC 25922 measured after 18 to 24 hrs in presence of trypsin by CLSI-based broth microdilution method; assay type: functional, organism-based; conditions: time hrs 18-24
[38] = Therapeutic index, ratio of MHC for human RBC to geometric mean of peptide MIC for Salmonella choleraesuis 503; assay type: toxicity; conditions: human red blood cells (RBC), read-out: TI
[39] = Therapeutic index, ratio of MHC for human RBC to geometric mean of peptide MIC for Staphylococcus aureus 11011; assay type: toxicity; conditions: human red blood cells (RBC), read-out: TI

CC[C@H](C)[C@H](NC(=O)CN)C(=O)NCC(=O)N[C@@H](C)C(=O)N[C@H](C(=O)N[C@@H](CC(C)C)C(=O)N[C@@H](CCCCN)C(=O)N[C@H](C(=O)N[C@@H](CC(C)C)C(=O)N[C@H](C(=O)N[C@H](C(=O)NCC(=O)N[C@@H](CC(C)C)C(=O)N1CCC[C@H]1C(=O)N[C@@H](C)C(=O)N[C@@H](CC(C)C)C(=O)N[C@H](C(=O)N[C@@H](CO)C(=O)N[C@@H](Cc1c[nH]c2ccccc12)C(=O)N[C@H](C(=O)N[C@@H](CCCCN)C(=O)N[C@@H](CCCNC(=N)N)C(=O)N[C@@H](CCCCN)C(=O)N[C@@H](CCCNC(=N)N)C(=O)N[C@@H](CCC(N)=O)C(=O)N[C@@H](CCC(N)=O)C(N)=O)[C@@H](C)CC)[C@@H](C)CC)[C@@H](C)O)[C@@H](C)O)C(C)C)C(C)C [MELITTIN]
Activity [1]: inactive
selectivity ratio [2]: 0.56
Stabilty [3]: Unstable
MIC [4]: 4 µM (≈ 11.4 µg/mL)
Activity [5]: inactive
Stabilty [6]: Unstable
Stabilty [7]: Unstable
Stabilty [8]: Unstable
selectivity ratio [9]: 0.4
MIC [10]: 1 µM (≈ 2.85 µg/mL)
MIC [11]: 4 µM (≈ 11.4 µg/mL)
selectivity ratio [12]: 0.4
selectivity ratio [13]: 0.4
Stabilty [14]: Stable
Activity [15]: inactive
hemolysis at 1 µM [16]: 10.1%
selectivity ratio [17]: 0.56
Stabilty [18]: Unstable
MIC [19]: 2 µM (≈ 5.69 µg/mL)
Stabilty [20]: Unstable
Activity [21]: Toxic
Activity [22]: Toxic
selectivity ratio [23]: 0.4
selectivity ratio [24]: 0.56
Stabilty [25]: Unstable
Activity [26]: inactive
Activity [27]: inactive
MHC [28]: 1 µM
selectivity ratio [29]: 0.56
Activity [30]: inactive
Activity [31]: Dose-dependent effect
hemolysis at up to 128 µM [32]: < 5%
Activity [33]: inactive
Stabilty [34]: Unstable
selectivity ratio [35]: 0.4
selectivity ratio [36]: 0.56
Activity [37]: inactive
selectivity ratio [38]: 0.4
selectivity ratio [39]: 0.56
